biological target: PARP7 (Homo sapiens (Human), UniProt Q7Z3E1); test: In vitro enzymology experiment of PARP7 (enzymatic inhibition); type: biochemical
Procedure: II. In Vitro Enzymology Experiment of PARP2, 3, 5A, 5B, 7, 12, and 15
1. Preparation of 384-well histone-coated plate: 25 μL of histone solution was added to each well, and the plate was incubated overnight at 4° C.
2. Preparation of PBST buffer, blocking buffer, and assay buffer
3. The 384-well histone-coated plate was washed three times with PBST buffer. The plate was blocked by 50 μL of blocking buffer for 1 hour at room temperature. The plate was then washed three times with PBST buffer.
2000× compound was prepared in a 96-well source plate. 50 nL of the compound was transferred from the source plate to a 96-well intermediate plate, and 39.95 μL of assay buffer was added to each well. The plate was shaken well and centrifuged at 1000 rpm for 1 minute.
5 μL of compound DMSO solution was transferred to each well.
An enzyme mixture was incubated at 25° C. for 10 minutes.
10 μL of the enzyme mixture was added, and incubated with the compound at room temperature for 10 minutes.
10 μL of assay buffer was added to the negative control well of the assay plate.
The plate was then washed three times with PBST buffer.
25 μL of Stre-HRP was added.
The plate was incubated at room temperature for 1 hour and washed three times with PBS buffer.
25 μL of QuantaRed Enhancer mix was added. The plate was incubated for 10 minutes.
2.5 μL of QuantaRed Stop Solution was added to terminate the peroxidase reaction, and the plate was shaken for 10 to 30 seconds.
7. Paradigm was used to read the plate immediately to detect the readings at Ex550/Em620.
Using equation (1) to fit the data in Excel to obtain inhibition values
Using equation (2) to fit the data in XL-Fit to obtain IC50 values
Y is the percentage of inhibition, and X is the compound concentration.

Chain of PARP7 (Q7Z3E1 whole entry): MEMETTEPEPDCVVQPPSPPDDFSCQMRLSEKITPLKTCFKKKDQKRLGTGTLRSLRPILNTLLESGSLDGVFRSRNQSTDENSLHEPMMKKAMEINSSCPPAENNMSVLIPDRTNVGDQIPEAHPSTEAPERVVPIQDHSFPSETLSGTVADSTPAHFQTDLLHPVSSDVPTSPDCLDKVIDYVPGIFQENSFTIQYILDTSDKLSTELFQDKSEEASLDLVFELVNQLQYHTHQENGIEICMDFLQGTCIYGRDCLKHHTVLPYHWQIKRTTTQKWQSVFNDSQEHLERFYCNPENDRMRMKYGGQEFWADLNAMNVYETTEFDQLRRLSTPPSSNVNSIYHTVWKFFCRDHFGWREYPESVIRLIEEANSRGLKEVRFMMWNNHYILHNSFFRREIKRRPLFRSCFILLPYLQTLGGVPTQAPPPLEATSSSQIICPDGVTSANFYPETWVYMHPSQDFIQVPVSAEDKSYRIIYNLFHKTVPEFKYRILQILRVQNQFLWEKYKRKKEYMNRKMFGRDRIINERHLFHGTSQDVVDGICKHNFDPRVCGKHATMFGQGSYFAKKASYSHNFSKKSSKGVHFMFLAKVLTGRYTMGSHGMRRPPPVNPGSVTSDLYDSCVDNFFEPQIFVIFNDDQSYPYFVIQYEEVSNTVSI

Point of comparison: `C[C@@H](Cc1c[nH]c(=O)c(C(F)(F)F)c1)OC(=O)N1CC2CN(c3ncc(C(F)(F)F)cn3)CC2C1` (stereo partly drawn) [Example 77, (S)-1-(6-Oxo-5-(trifluoromethyl)-1,6-dihydropyridin-3-yl)propan-2-yl 5-(5-(trifluoromethyl)pyrimidin-2-yl) hexahydropyrrolo[3,4-c]pyrrole-2(1H)-carboxylate], IC50 2.15 nM. Against it:
- C[C@@H](Cc1c[nH]c(=O)c(C(F)(F)F)c1)OC(=O)N1CCC(Nc2ncc(C(F)(F)F)cn2)CC1 [Example 72, (S)-1-(6-Oxo-5-(trifluoromethyl)-1,6-dihydropyridin-3-yl)propan-2-yl 4-((5-(trifluoromethyl)pyrimidin-2-yl)amino) piperidine-1-carboxylate] — 2.3-fold higher, 4.98 nM
- C[C@@H](Cc1c[nH]c(=O)c(C(F)(F)F)c1)OC(=O)N1CCN(c2ncc(C(F)(F)F)cn2)[C@@H](CO)C1 [Example 73, (S)-1-(6-Oxo-5-(trifluoromethyl)-1,6-dihydropyridin-3-yl)propan-2-yl (R)-3-(hydroxymethyl)-4-(5-(trifluoromethyl)pyrimidin-2-yl)piperazine-1-carboxylate] — 2.9-fold lower, 0.75 nM
- C[C@@H](Cc1c[nH]c(=O)c(C(F)(F)F)c1)OC(=O)N1CCN(c2ncc(CO)cn2)CC1 [Example 75, (S)-1-(6-Oxo-5-(trifluoromethyl)-1,6-dihydropyridin-3-yl)propan-2-yl 4-(5-(hydroxymethyl)pyrimidin-2-yl)piperazine-1-carboxylate] — 2.6-fold lower, 0.83 nM
- C[C@@H](Cc1c[nH]c(=O)c(C(F)(F)F)c1)OC(=O)N1CCN(c2cnc(C#N)cn2)CC1 [Example 76, (S)-1-(6-Oxo-5-(trifluoromethyl)-1,6-dihydropyridin-3-yl)propan-2-yl 4-(5-cyanopyrazin-2-yl)piperazine-1-carboxylate] — 3.2-fold lower, 0.67 nM
- C[C@@H](Cc1c[nH]c(=O)c(C(F)(F)F)c1)OC(=O)N1CCN(c2ncc(C(F)(F)F)cn2)C[C@@H]1CO [Example 78, (S)-1-(6-Oxo-5-(trifluoromethyl)-1,6-dihydropyridin-3-yl)propan-2-yl (R)-2-(hydroxymethyl)-4-(5-(trifluoromethyl)pyrimidin-2-yl)piperazine-1-carboxylate] — 1.5-fold lower, 1.4 nM
- C[C@@H](Cc1c[nH]c(=O)c(C(F)(F)F)c1)OC(=O)N1CCN(c2ncc(C(F)(F)F)cn2)C[C@H]1CO [Example 79, (S)-1-(6-Oxo-5-(trifluoromethyl)-1,6-dihydropyridin-3-yl)propan-2-yl (S)-2-(hydroxymethyl)-4-(5-(trifluoromethyl)pyrimidin-2-yl)piperazine-1-carboxylate] — 3.2-fold lower, 0.68 nM
- C[C@@H](Cc1c[nH]c(=O)c(C(F)(F)F)c1)OC(=O)N1CCN(c2ncc(C(F)(F)F)cn2)[C@H](CO)C1 [Example 80, (S)-1-(6-Oxo-5-(trifluoromethyl)-1,6-dihydropyridin-3-yl)propan-2-yl (S)-3-(hydroxymethyl)-4-(5-(trifluoromethyl)pyrimidin-2-yl)piperazine-1-carboxylate] — within 1.5-fold, 1.5 nM
- Cc1c(C[C@H](C)OC(=O)N2CCN(c3ncc(C(F)(F)F)cn3)CC2)c[nH]c(=O)c1C(F)(F)F [Example 81, (S)-1-(4-Methyl-6-oxo-5-(trifluoromethyl)-1,6-dihydropyridin-3-yl)propan-2-yl 4-(5-(trifluoromethyl)pyrimidin-2-yl)piperazine-1-carboxylate] — 2.9-fold lower, 0.75 nM
- O=C(O[C@H]1CCC[C@H]1c1c[nH]c(=O)c(C(F)(F)F)c1)N1CCN(c2ncc(C(F)(F)F)cn2)CC1 [Example 82, (1S,2S)-2-(6-Oxo-5-(trifluoromethyl)-1,6-dihydropyridin-3-yl)cyclopentyl 4-(5-(trifluoromethyl)pyrimidin-2-yl)piperazine-1-carboxylate] — within 1.5-fold, 1.44 nM
- CC(OC[C@@H]1CCCN1c1c[nH]c(=O)c(C(F)(F)F)c1)C(=O)N1CCN(c2ncc(C(F)(F)F)cn2)CC1 (some centres unmarked) [Example 83] — 1.6-fold lower, 1.38 nM

— patent publication US20240351997A1, “NOVEL PARP7 INHIBITOR AND USE THEREOF” (SHANGHAI QILU PHARMACEUTICAL RESEARCH AND DEVELOPMENT …, priority 2021, published 2024)
